# Reference: patent publication US7553845B2, “Substituted indolizine 1,2,3,6,7,8 derivatives, FGFs inhibitors, a method for the preparation thereof and pharmaceutical compositions containing said derivatives” (sanofi-aventis, priority 2003, dated 2009)
# Structures can show the parent of a compound that is named as a salt.
# Test system: circulating platelet level
# Experiment: Effect on thrombopenia induced by carboplatin in mice
# Type: in vivo
# Settings: carboplatin 150 mg/kg intraperitoneally, balbC mice, at nadir
# From the text: Thrombopenia remains a pathology for which there are few effective treatments apart from the transfusion of platelet concentrates and thrombopoietin (Kaushansky, K. New Eng J Med (1998), 339, pp 746-754).
# Anticancer chemotherapy constitutes one of the major causes of thrombopenia. One of the agents for chemotherapy, carboplatin, has been widely used to induce thrombopenia in mice and to thus be able to characterize the effect of compounds capable of improving the platelet level such as for example thrombopoietin (Hokom M M et al., Blood (1995), 86, pp 4486-4492).
# 150 mg/kg of carboplatin were administered intraperitoneally to balbC mice weighing 20 g. A blood sample was collected periodically by retro-orbital puncture and the circulating platelet level is determined by a haematology automated machine (MS9™ from Melet-Schloesing Laboratoires, Cergy-Pontoise, France). Under these conditions, a reversible thrombopenia is observed with a nadir situated 9 to 10 days after the administration of carboplatin (reduction in the circulating platelet level by 50-60%).
# The compounds according to the invention or their solvent (a blank—control) are administered orally for 5 days by starting the treatment 7 days before the administration of carboplatin. The experiments were carried out on groups comprising 10-12 mice and the results are expressed as a mean±standard error. […]
row,Compound,reduction in the circulating platelet level
1,N.N.O=C([O-])C1(C(=O)[O-])CCC1.[Pt+2] [carboplatin],50-60%

# Test system: not given
# Experiment: not given
# Settings: not given
row,Compound,melting point
1,COC(=O)c1c(C)c(C(=O)c2ccc([N+](=O)[O-])c(OC)c2)n2cccc(OCc3ccccc3)c12,125 °C
2,COC(=O)c1ccc2c(OC)c(C)c(C(=O)c3ccc([N+](=O)[O-])c(OC)c3)n2c1,211 °C
3,COC(=O)c1c(C)c(C(=O)c2ccc([N+](=O)[O-])c(OC)c2)n2cccc(O)c12,150 °C
4,COC(=O)c1c(C)c(C(=O)c2ccc([N+](=O)[O-])c(OC)c2)n2cc(OCc3ccccc3)ccc12,179 °C
5,COc1ccc(-c2c(C)c(C(=O)c3ccc([N+](=O)[O-])c(OC)c3)n3cc(C(N)=O)ccc23)cc1,267 °C
6,COC(=O)c1cc(C(=O)c2c(C)c(-c3cccs3)c3ccccn23)ccc1N,162 °C
7,CCOC(=O)COc1cccn2c(C(=O)c3ccc(N)c(OC)c3)c(C)c(C(=O)OC)c12,136 °C
8,COC(=O)c1ccc2c(OC)c(C)c(C(=O)c3ccc(N)c(OC)c3)n2c1,193 °C
9,COc1cc(C(=O)c2c(C)c(-c3cccs3)c3ccccn23)ccc1N (as salt: HCl) (hydrate or solvate),219 °C
10,COc1ccc2c(OC)c(C)c(C(=O)c3ccc(N)c(C(=O)O)c3)n2c1 (as salt: Na) (hydrate or solvate),318 °C
11,CNc1ccn2c(C(=O)c3ccc(N)c(OC)c3)c(C)c(C(=O)O)c2c1 (as salt: Na) (hydrate or solvate),209 to 219 °C
12,COc1cc(C(=O)c2c(C)c(C(=O)O)c3cc(N(C)C)ccn23)ccc1N (as salt: Na) (hydrate or solvate),222 to 227 °C
